pIC50: −log10 of the molar value.

Our source for the MRT and IC50 values is patent US12497403B2, “Factor XIa inhibitors” (Merck Sharp & Dohme LLC, priority 2021, dated 2025).

Data set [1] can be described thus: Dog pharmacokinetics (screening IV/PO or cassette IV). Format: in vivo. The settings on record: male; dog plasma, mean residence time. On the procedure:
Plasma pharmacokinetic parameters for clearance, volume of distribution, half-life, mean residence time (MRT) and oral bioavailability were determined in dogs from oral administration and IV administration studies. 4 male dogs, typically weighing 8-12 kilograms, were fasted overnight prior to dosing. Compounds were prepared for oral and IV dosing by addition to a vehicle, depending on the dose used. For a typical preparation, 1 mg per mL (IV) or 1.5 mg per mL (oral) of test compound was added to vehicle comprised of 20% dimethyl sulfoxide (DMSO), 60% polyethylene glycol 400 (PEG400) and 20% water. IV formulation was administered to 2 dogs via the saphenous or cephalic vein, and oral dosing was administered to 2 dogs via oral gavage. Blood was collected by the cephalic or jugular vein, typically at predose, 2 min, 8 min, 15 min, 30 min, and 1, 2, 4, 6, 8 and 24 hr postdose for IV, and at predose, 15 min, 30 min, and 1, 2, 4, 6, 8, and 24 hr for oral dosing. Samples were collected in K2EDTA tubes, stored on ice. and centrifuged. Plasma was transferred to a micro titer plate and stored at −70° C.until analysis. Plasma samples were extracted using protein precipitation and analyzed by liquid chromatography separation followed by mass spec detection (LCMS/MS), using a standard curve for each compound. Plasma pharmacokinetic parameters were calculated for IV and oral dosing data by non-compartmental methods. Oral bioavailability was determined as the ratio of the dose-normalized plasma area under the curve (AUC) following oral dosing vs. IV dosing.
Plasma pharmacokinetic parameters for clearance, volume of distribution, half-life, and mean residence time (MRT) were determined in dogs from IV cassette administration studies. 2 male dogs, typically weighing 8-12 kilograms, were fasted overnight prior to dosing. Compounds were prepared for IV dosing by addition to a vehicle, depending on the dose used. For a typical preparation, 1 mg per mL (IV) of up to 5 test compounds were added to vehicle comprised of 20% dimethyl sulfoxide (DMSO), 60% polyethylene glycol 400 (PEG400) and 20% water. IV formulation was administered to 2 dogs via the saphenous or cephalic vein. Blood was collected by the cephalic or jugular vein, typically at predose. 2, 8, 15, 30 min, 1, 2, 4, 6, 8 and 24 hr postdose. Samples were collected in K2EDTA tubes, stored on ice, and centrifuged. Plasma was transferred to a micro titer plate and stored at −70° C. until analysis. Plasma samples were extracted using protein precipitation and analyzed by liquid chromatography separation followed by mass spec detection (LCMS/MS), using a standard curve for each compound. Plasma pharmacokinetic parameters were calculated by non-compartmental methods.

Another data set concerns the target human Factor XIa (Homo sapiens, UniProt P03951). Description: Factor XIa assay. Format: biochemical. The settings on record: human Factor XIa 0.04 nM, GPR-AFC substrate, 25° C., pH 7.4; read-out: FXIa IC50. On the procedure:
(§1) The effectiveness of a compound of the present invention as an inhibitor of Coagulation Factor XIa can be determined using a relevant purified serine protease, and an appropriate synthetic substrate. The rate of hydrolysis of the chromogenic or fluorogenic substrate by the relevant serine protease was measured both in the absence and presence of compounds of the present invention. Assays were conducted at room temperature or at 37° C. […] A decrease in the rate of fluorescence change in the presence of inhibitor is indicative of enzyme inhibition. Such methods are known to one skilled in the art. The results of this assay are expressed as the half-maximal inhibitory concentrations (IC50), or the inhibitory constant, Ki.
Compounds were pre-incubated for 30 minutes at 25° C. with human (0.04 nM) Factor XIa in 50 mM HEPES buffer with 150 mM sodium chloride, 5 mM calcium chloride, 0.1% PEG 8000, pH 7.4. Factor XIa enzymatic activity was determined by addition of the substrate glycine-proline-arginine-7-amido-4-trifluoromethylcoumarin (GPR-AFC) and measurement of the fluorescence at 400/505 nm after a 60 minute incubation at 25° C. The % inhibition for each data point was calculated from the data and analyzed using the log (inhibitor) vs. response four parameters equation to determine the half-maximal inhibitory concentrations (IC50). The IC50 were converted to equilibrium inhibitory constants (Ki) using the Cheng-Prusoff equation.

Another data set deals with T1, Human plasma kallikrein (Homo sapiens, UniProt P03952).
T1 construct: yields a heavy chain (371 amino acids) and a light chain (248 amino acids); purchased Enzyme Research Laboratories
T1 sequence (P03952 391-638 limits assumed): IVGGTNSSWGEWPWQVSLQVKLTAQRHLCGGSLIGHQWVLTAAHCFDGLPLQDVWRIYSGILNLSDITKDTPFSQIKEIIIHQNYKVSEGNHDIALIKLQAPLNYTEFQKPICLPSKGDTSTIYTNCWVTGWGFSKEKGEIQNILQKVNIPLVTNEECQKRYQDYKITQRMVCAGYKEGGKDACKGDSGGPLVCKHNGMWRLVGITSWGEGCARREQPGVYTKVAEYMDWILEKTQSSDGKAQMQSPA
T1 sequence (P03952 20-390 partner limits assumed): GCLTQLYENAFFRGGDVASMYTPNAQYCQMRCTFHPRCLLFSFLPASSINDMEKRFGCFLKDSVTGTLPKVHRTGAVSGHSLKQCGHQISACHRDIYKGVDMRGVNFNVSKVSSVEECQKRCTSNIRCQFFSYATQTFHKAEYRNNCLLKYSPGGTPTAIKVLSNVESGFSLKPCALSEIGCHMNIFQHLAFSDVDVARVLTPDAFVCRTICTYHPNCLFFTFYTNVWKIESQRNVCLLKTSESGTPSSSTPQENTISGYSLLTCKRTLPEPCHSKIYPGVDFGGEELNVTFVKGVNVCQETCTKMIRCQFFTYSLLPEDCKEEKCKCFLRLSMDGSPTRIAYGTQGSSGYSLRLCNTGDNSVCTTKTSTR
Description: Kallikrein assay (plasma kallikrein). The settings on record: purified Human plasma kallikrein 0.5 nM, Acetyl-K-P-R-AFC substrate, pH 7.4; read-out: pKal IC50. Type of data set: biochemical. On the procedure: as §1, with “Kallikrein” for “Coagulation Factor XIa”, “constant.” for “constant,”
Kallikrein determinations were made in 50 mM HEPES buffer at pH 7.4 containing 150 mM NaCl, 5 mM CaCl2, and 0.1% PEG 8000 (polyethylene glycol; Fisher Scientific). Determinations were made using purified Human plasma kallikrein at a final concentration of 0.5 nM (Enzyme Research Laboratories) and the synthetic substrate. Acetyl-K-P-R-AFC (Sigma # C6608) at a concentration of […].
Activity assays were performed by diluting a stock solution of substrate at least tenfold to a final concentration≤ 0.2 Km into a solution containing enzyme or enzyme equilibrated with inhibitor. Times required to achieve equilibration between enzyme and inhibitor were determined in control experiments. The reactions were performed under linear progress curve conditions and fluorescence increase measured at 405 Ex/510 Em nm. Values were converted to percent inhibition of the control reaction (after subtracting 100% Inhibition value). IC50 was determined by inflection point from a four parameter logistic curve fit. Ki was calculated using the Cheng Prusoff equation. Ki=IC50/(1+([S]/Km)).

human Factor XIa, sequence (P03951 388-625 limits assumed): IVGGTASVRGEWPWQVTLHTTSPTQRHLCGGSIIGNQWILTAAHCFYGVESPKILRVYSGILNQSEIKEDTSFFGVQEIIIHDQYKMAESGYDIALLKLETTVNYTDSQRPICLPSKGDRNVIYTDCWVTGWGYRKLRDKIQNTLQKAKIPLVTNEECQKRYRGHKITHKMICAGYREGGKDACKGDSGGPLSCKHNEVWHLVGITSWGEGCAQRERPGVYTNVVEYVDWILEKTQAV
human Factor XIa, sequence (P03951 19-387 partner limits assumed): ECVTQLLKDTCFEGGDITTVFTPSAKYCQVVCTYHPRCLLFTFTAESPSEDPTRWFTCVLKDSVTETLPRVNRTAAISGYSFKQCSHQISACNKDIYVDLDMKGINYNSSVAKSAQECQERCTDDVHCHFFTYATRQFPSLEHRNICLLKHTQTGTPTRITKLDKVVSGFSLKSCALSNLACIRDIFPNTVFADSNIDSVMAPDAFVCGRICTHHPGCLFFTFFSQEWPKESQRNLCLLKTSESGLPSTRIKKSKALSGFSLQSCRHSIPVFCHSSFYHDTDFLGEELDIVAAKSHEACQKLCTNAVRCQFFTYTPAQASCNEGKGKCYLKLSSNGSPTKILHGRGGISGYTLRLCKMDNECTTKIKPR

For the compound `CCOC(=O)c1[nH]c2nc1-c1ccc(NC(=O)OC)cc1NC(=O)C(C)(C)CCC[C@@H]2c1ccc(-c2cc(F)ccc2-n2cc(C(F)(F)F)cn2)c[n+]1[O-]` [Example 1, (R,Z)-2-(1^5-(ethoxycarbonyl)-2^4-((methoxycarbonyl)amino)-5,5-dimethyl-4-oxo-1^1H-3-aza-1(4,2)-imidazola-2(1,2)-benzenacyclononaphane-9-yl)-5-(5-fluoro-2-(4-(trifluoromethyl)-1H-pyrazol-1-yl)phenyl)pyridine 1-oxide], the MRT in data set [1] turned out to be 12 h. Further, the results for the negative-log IC50 (pIC50) at human Factor XIa and on Human plasma kallikrein were 9.06 and 6.92, respectively.

In the case of `CCOC(=O)c1[nH]c2nc1-c1ccc(NC(=O)OC)cc1NC(=O)C(C)(C)CCC[C@@H]2c1ccc(-c2cc(Cl)ccc2-n2cc(C(F)(F)F)cn2)c[n+]1[O-]` [Example 2, (R,Z)-5-(5-chloro-2-(4-(trifluoromethyl)-1H-pyrazol-1-yl)phenyl)-2-(1^5-(ethoxycarbonyl)-2^4-((methoxycarbonyl)amino)-5,5-dimethyl-4-oxo-1^1H-3-aza-1(4,2)-imidazola-2(1,2)-benzenacyclononaphane-9-yl)pyridine 1-oxide], the mean residence time (MRT) in data set [1] amounted to 15 h. Also, the pIC50 on human Factor XIa is 9.01; at Human plasma kallikrein, 7.96.

In data set [1], `CCOC(=O)c1[nH]c2nc1-c1ccc(NC(=O)OC)cc1NC(=O)C(C)(C)CCC[C@@H]2c1ccc(-c2cc(F)ccc2OC(F)F)c[n+]1[O-]` [Example 3, (R,Z)-5-(2-(difluoromethoxy)-5-fluorophenyl)-2-(1^5-(ethoxycarbonyl)-2^4-((methoxycarbonyl)amino)-5,5-dimethyl-4-oxo-1^1H-3-aza-1(4,2)-imidazola-2(1,2)-benzenacyclononaphane-9-yl)pyridine 1-oxide] had a mean residence time (MRT) of 6.1 h. The pIC50 is 9.59 at human Factor XIa and 8.85 at Human plasma kallikrein.

As to `CCOC(=O)c1[nH]c2nc1-c1ccc(NC(=O)OC)cc1NC(=O)C(C)(C)CCC[C@@H]2c1ccc(-c2cc(Cl)cnc2OC(F)F)c[n+]1[O-]` [Example 4, (R,Z)-5′-chloro-2′-(difluoromethoxy)-6-(1^5-(ethoxycarbonyl)-2^4-((methoxycarbonyl)amino)-5,5-dimethyl-4-oxo-1^1H-3-aza-1(4,2)-imidazola-2(1,2)-benzenacyclononaphane-9-yl)-[3,3′-bipyridine] 1-oxide], the MRT in data set [1] turned out to be 9.9 h. The pIC50 is 8.89 at human Factor XIa and 6.98 on Human plasma kallikrein.

Turning to `CCOC(=O)c1[nH]c2nc1-c1ccc(NC(=O)OC)cc1NC(=O)C(C)(C)CCC[C@@H]2c1ccc(-c2cccc(Cl)c2F)c[n+]1[O-]` [Example 5, (R,Z)-5-(3-chloro-2-fluorophenyl)-2-(1^5-(ethoxycarbonyl)-2^4-((methoxycarbonyl)amino)-5,5-dimethyl-4-oxo-1^1H-3-aza-1(4,2)-imidazola-2(1,2)-benzenacyclononaphane-9-yl)pyridine 1-oxide], the MRT in data set [1] came out at 7.2 h. Also, the values for the pIC50 on human Factor XIa and on Human plasma kallikrein were 9.72 and 9.31, respectively.

The compound `COC(=O)Nc1ccc2c(c1)NC(=O)C(C)(C)CCC[C@H](c1ccc(-c3cc(F)ccc3-n3cc(C(F)(F)F)cn3)c[n+]1[O-])c1nc-2c(C(=O)OC)[nH]1` [Example 6, (R,Z)-5-(5-fluoro-2-(4-(trifluoromethyl)-1H-pyrazol-1-yl)phenyl)-2-(1^5-(methoxycarbonyl)-2^4-((methoxycarbonyl)amino)-5,5-dimethyl-4-oxo-1^1H-3-aza-1(4,2)-imidazola-2(1,2)-benzenacyclononaphane-9-yl)pyridine 1-oxide] displayed an MRT in data set [1] of 8.9 h. Moreover, the negative-log IC50 (pIC50) was 9.09 at human Factor XIa and 6.91 at Human plasma kallikrein.
